# Assay results reported in patent publication EP0076430A1, “Compositions having antimicrobial activity” (MEDEA RESEARCH S.r.l., priority 1981, dated 1983).
# How the values were obtained:
# Format in all cases: cell-based
# Serratia marcescens = experiment: Bactericide activity at different contact times; design: key to Bactericide action (growth / no growth): + = growth; - = no growth; settings: 200 p.p.m.
# Procedure: (§1) Different bacterial species isolated from patients are employed.
# (§2) Compounds AB5 and AB6 are dissolved in ethanol (ethyl alcohol 95°, C. Erba) and all the subsequent dilutions performed in distilled water. The chlorhexidine is diluted from the commercial product already dissolved in distilled water.
# (§3) It is assessed through Dinatech apparatus with "Inoculum 96" head.
# (§4) Chemical compounds at established concentra tions are placed in amount of 1 ml in the con tainers, the bacterial inoculum is then added in amount of 0.1 ml (24 hrs culture) and at pre-established times (3,5,10,30,60 and 120 mi nutes), through the head, the mixture compound/ disinfectant agent is transferred in solid medium (agar-heart-brain medium). After incubation at 35°C for 24 hours, the reading is carried out. The tests are repeated in presence of human serum at the concentration of 10%.
# E. coli = experiment: Bactericide activity at different contact times; design: key to Bactericide action (growth / no growth): + = growth; - = no growth; settings: 200 p.p.m.
# Procedure: as §1, §2, §3, §4
# Indole-positive Proteus [1] = experiment: Bactericide activity at different contact times; design: key to Bactericide action (growth / no growth): + = growth; - = no growth; settings: 200 p.p.m.
# Procedure: as §1, §2, §3, §4
# Pseudomonas aeruginosa [2] = experiment: Bactericide activity at different contact times; design: key to Bactericide action (growth / no growth) / Bactericide activity (growth / no growth), serum interference test: + = growth; - = no growth; settings: 200 p.p.m.
# Procedure: as §1, §2, §3, §4
# Staph. aureus [3] = experiment: Bactericide activity at different contact times; design: key: + = growth; - = no growth; settings: 200 p.p.m.
# Procedure: as §1, §2, §3, §4
# Salmonella sp. [4] = experiment: Bactericide activity at different contact times; design: key: + = growth; - = no growth; settings: 200 p.p.m.
# Procedure: as §1, §2, §3, §4
# B. subtilis = experiment: Bactericide activity at different contact times; design: key: + = growth; - = no growth; settings: 200 p.p.m.
# Procedure: as §1, §2, §3, §4
# Staph. aureus [5] = experiment: Minimum inhibitory concentration (MIC), broth dilution; settings: Staphylococcus aureus, 24 h; strain 2672
# Procedure: as §1, §2
# (§5) The broth dilution is employed to assess MIC values for all strains. Sterile microtiter plates with U bottom with 96 wells are employed. 0.1 Ml of liquid medium (tryptose Roche broth) are put in each well, the plates are kept at -20° and, before use, at room temperature.
# (§6) The disinfectant agent is put in the wells of the row 2 at a concentration of 4000 mcg/ml (real 2000 mcg/ml) and then with a 100 µl micro- pipette dilutions are performed from row 2 to row 11.
# (§7) The row 1 is the control of the medium and the row 12 is the control for the fertility of the medium itself.
# (§8) After having performed the dilutions, 0.01 ml of a 24 hrs bacterial broth culture (previously diluted at 10^-4 for Gram-negative strains and 10-2 for Gram-positive ones) are placed in all wells, from the rows 2 to 12. After the inoculation, the plate is hermetical ly sealed with adhesive transparent band and an hole is done with a needle. The plates are kept at 35° for 24 hours and a macroscopic reading is carried out; in case of non uniform reading, taking place only for chlorhexidine, the cultures from the wells are plated on agar-heart-brain medium (Sclavo) through Dinatech apparatus (head "Inoculum 96") and the reading of the growth is carried out in the following 24 hours.
# Salmonella sp. [6] = experiment: as above; settings: 24 h, strain 2482
# Procedure: as §1, §2, §5, §6, §7, §8
# E.coli = experiment: as above; settings: Escherichia coli, 24 h
# Procedure: as §1, §2, §5, §6, §7, §8
# Bacillaceae = experiment: as above; settings: 24 h; strain 1722
# Procedure: as §1, §2, §5, §6, §7, §8
# Enterobacter = experiment: as above; settings: 24 h, strain 2643
# Procedure: as §1, §2, §5, §6, §7, §8
# Pseudomonas aeruginosa [7] = experiment: as above; settings: 24 h
# Procedure: as §1, §2, §5, §6, §7, §8
# Indole-positive Proteus [8] = experiment: as above; settings: 24 h
# Procedure: as §1, §2, §5, §6, §7, §8
# [9] = tested on: Different bacterial species isolated from patients; experiment: Bactericide activity, minimum active concentration on the strains; settings: Homo sapiens, 24 h
# Procedure: as §1
# Strains of E. coli, Pseudomonas aeruginosa, indole-positive and negative Proteus, Staphilococcus aureus, Enterobacter, Salmonella sp., Serratia marcescens, B. subtilis and Bacillaceae are investigated.
# as §2, §3, §4
# For chlorhexidine, the minimum active concentration is 200 p.p.m.
structure (smiles),measurement,setting,value
"N=C(NCCCCCCNC(=N)NC(=N)Nc1ccc(Cl)cc1)NC(=N)Nc1ccc(Cl)cc1 [Chlorhexidine, N,N'-bis-(4-chlorophenyl)-3,12-diimino-2,4,11,13-tetraazatetradecandiimidamide, reference compound]",Bactericide action (growth / no growth),Serratia marcescens; contact time 3 min,+
same,Bactericide action (growth / no growth),Serratia marcescens; contact time 5 min,+
same,Bactericide action (growth / no growth),Serratia marcescens; contact time 10 min,+
same,Bactericide action (growth / no growth),Serratia marcescens; contact time 30 min,+
same,Bactericide action (growth / no growth),Serratia marcescens; contact time 60 min,-
same,Bactericide action (growth / no growth),Serratia marcescens; contact time 120 min,-
same,contact time for total bactericide activity,E. coli,30 to 120 min
same,Bactericide action (growth / no growth),E. coli; contact time 3 min,+
same,Bactericide action (growth / no growth),E. coli; contact time 5 min,+
same,Bactericide action (growth / no growth),E. coli; contact time 10 min,+
same,Bactericide action (growth / no growth),E. coli; contact time 30 min,-
same,Bactericide action (growth / no growth),E. coli; contact time 60 min,-
same,Bactericide action (growth / no growth),E. coli; contact time 120 min,-
same,Bactericide action (growth / no growth),Indole-positive Proteus [1]; contact time 3 min,+
same,Bactericide action (growth / no growth),Indole-positive Proteus [1]; contact time 5 min,+
same,Bactericide action (growth / no growth),Indole-positive Proteus [1]; contact time 10 min,+
same,Bactericide action (growth / no growth),Indole-positive Proteus [1]; contact time 30 min,+
same,Bactericide action (growth / no growth),Indole-positive Proteus [1]; contact time 60 min,+
same,Bactericide action (growth / no growth),Indole-positive Proteus [1]; contact time 120 min,-
same,Bactericide action (growth / no growth),Pseudomonas aeruginosa [2]; contact time 3 min,+
same,Bactericide action (growth / no growth),Pseudomonas aeruginosa [2]; contact time 5 min,+
same,Bactericide action (growth / no growth),Pseudomonas aeruginosa [2]; contact time 10 min,+
same,Bactericide action (growth / no growth),Pseudomonas aeruginosa [2]; contact time 30 min,+
same,Bactericide action (growth / no growth),Pseudomonas aeruginosa [2]; contact time 60 min,-
same,Bactericide action (growth / no growth),Pseudomonas aeruginosa [2]; contact time 120 min,-
same,Bactericide action (growth / no growth),Staph. aureus [3]; contact time 3 min,+
same,Bactericide action (growth / no growth),Staph. aureus [3]; contact time 5 min,+
same,Bactericide action (growth / no growth),Staph. aureus [3]; contact time 10 min,+
same,Bactericide action (growth / no growth),Staph. aureus [3]; contact time 30 min,-
same,Bactericide action (growth / no growth),Staph. aureus [3]; contact time 60 min,-
same,Bactericide action (growth / no growth),Staph. aureus [3]; contact time 120 min,-
same,Bactericide action (growth / no growth),Salmonella sp. [4]; contact time 3 min,+
same,Bactericide action (growth / no growth),Salmonella sp. [4]; contact time 5 min,+
same,Bactericide action (growth / no growth),Salmonella sp. [4]; contact time 10 min,+
same,Bactericide action (growth / no growth),Salmonella sp. [4]; contact time 30 min,+
same,Bactericide action (growth / no growth),Salmonella sp. [4]; contact time 60 min,-
same,Bactericide action (growth / no growth),Salmonella sp. [4]; contact time 120 min,-
same,Bactericide action (growth / no growth),B. subtilis; contact time 3 min,+
same,Bactericide action (growth / no growth),B. subtilis; contact time 5 min,+
same,Bactericide action (growth / no growth),B. subtilis; contact time 10 min,+
same,Bactericide action (growth / no growth),B. subtilis; contact time 30 min,+
same,Bactericide action (growth / no growth),B. subtilis; contact time 60 min,-
same,Bactericide action (growth / no growth),B. subtilis; contact time 120 min,-
same,MIC,Staph. aureus [5],< 0.98 µg/mL
same,MIC,Salmonella sp. [6],500 µg/mL
same,MIC,E.coli; strain 2096,1000 µg/mL
same,MIC,E.coli; strain 2117,1000 µg/mL
same,MIC,E.coli; strain 2456,500 µg/mL
same,MIC,E.coli; strain 2568,2000 µg/mL
same,MIC,Bacillaceae,< 0.98 µg/mL
same,MIC,Enterobacter,2000 µg/mL
same,MIC,Pseudomonas aeruginosa [7]; strain 2458,1000 µg/mL
same,MIC,Pseudomonas aeruginosa [7]; strain 2488,2000 µg/mL
same,MIC,Pseudomonas aeruginosa [7]; strain 2508,> 2000 µg/mL
same,MIC,Pseudomonas aeruginosa [7]; strain 2509,2000 µg/mL
same,MIC,Pseudomonas aeruginosa [7]; strain 2670,> 2000 µg/mL
same,MIC,Indole-positive Proteus [8]; strain 2075,> 1000 µg/mL
same,MIC,Indole-positive Proteus [8]; strain 2083,1000 µg/mL
same,MIC,Indole-positive Proteus [8]; strain 2105,> 1000 µg/mL
same,MIC,Indole-positive Proteus [8]; strain 2410,2000 µg/mL
same,MIC,Indole-positive Proteus [8]; strain 2447,2000 µg/mL
same,MIC,Indole-positive Proteus [8]; strain 2674,> 2000 µg/mL
same,MBC,[9],200 µg/mL
